Measured values reported in PubChem BioAssay (NCI).
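Step 1: Grow cells in 96-well plates. Step 2: Expose to compound for 48 hours at 5 concentrations. Step 3: Interpolate endpoints linearly; if unreached, use highest concentration. TGI is the concentration that stops growth completely.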

Key:
Experiment in all cases: NCI-60 cell line screen, 48 h
OVCAR-3 ovarian = tested on: OVCAR-3 ovarian
786-0 renal = tested on: 786-0 renal
CAKI-1 renal = tested on: CAKI-1 renal
A549 NSCLC = tested on: A549 NSCLC
SF-539 CNS = tested on: SF-539 CNS
U251 CNS = tested on: U251 CNS
HCC-2998 colon = tested on: HCC-2998 colon
MCF7 breast = tested on: MCF7 breast
SNB-75 CNS = tested on: SNB-75 CNS
HT29 colon = tested on: HT29 colon

`C=CC(C)(C)c1cc([C@@H]2COc3cc(O)ccc3C2=O)c(O)c(O)c1OC` was tested, and the TGI (OVCAR-3 ovarian) was 29.3 µM, the TGI (786-0 renal) was 31.6 µM and the TGI (CAKI-1 renal) was 27.4 µM. It also gave a TGI (A549 NSCLC) of over 100 µM, a TGI (SF-539 CNS) of 57.9 µM and a TGI (U251 CNS) of 40.6 µM. It also gave a TGI (HCC-2998 colon) of over 100 µM, a TGI (MCF7 breast) of 32.5 µM and a TGI (SNB-75 CNS) of 56.6 µM. It also gave a TGI (HT29 colon) of 47.4 µM.
Molecule `CN(C)Cc1cc(C(=O)/C=C/c2cccc(Cl)c2)cc(CN(C)C)c1O` has a TGI (OVCAR-3 ovarian) of 9.21 µM, a TGI (786-0 renal) of 15.7 µM and a TGI (CAKI-1 renal) of 4.3 µM. For the same molecule, the TGI (A549 NSCLC) was 28.8 µM, the TGI (SF-539 CNS) was 19.5 µM and the TGI (U251 CNS) was 12.3 µM. It also gave a TGI (HCC-2998 colon) of 23.8 µM, a TGI (MCF7 breast) of 23.3 µM and a TGI (SNB-75 CNS) of 6.43 µM. The TGI (HT29 colon) was 16.6 µM.
`Cc1ccc(S(=O)(=O)c2ccc([N+](=O)[O-])o2)cc1` was tested, and the TGI (OVCAR-3 ovarian) was 3.71 µM, the TGI (786-0 renal) was 3.26 µM and the TGI (CAKI-1 renal) was 1.54 µM. The TGI (A549 NSCLC) was 28.1 µM, the TGI (SF-539 CNS) was 3.34 µM and the TGI (U251 CNS) was 17.7 µM. For the same molecule, the TGI (HCC-2998 colon) was 13.1 µM, the TGI (MCF7 breast) was 7.13 µM and the TGI (SNB-75 CNS) was 11.8 µM. It also gave a TGI (HT29 colon) of 3.2 µM.
For `COc1cc2c(cc1C)NC(=O)/C2=C\c1ccncc1`, the TGI (OVCAR-3 ovarian) was 10.3 µM, the TGI (786-0 renal) was 18.8 µM and the TGI (CAKI-1 renal) was 16.5 µM. For the same molecule, the TGI (A549 NSCLC) was 66.5 µM, the TGI (SF-539 CNS) was 8.45 µM and the TGI (U251 CNS) was 18.6 µM. The TGI (HCC-2998 colon) was 30 µM, the TGI (MCF7 breast) was 11.4 µM and the TGI (SNB-75 CNS) was 33.7 µM. It also gave a TGI (HT29 colon) of over 100 µM.
`COc1cc(/C=N\NC(=O)C[N+](C)(C)C)cc(OC)c1OC` showed a TGI (OVCAR-3 ovarian) of over 10 µM, a TGI (786-0 renal) of over 10 µM and a TGI (CAKI-1 renal) of over 10 µM. It also gave a TGI (A549 NSCLC) of over 10 µM, a TGI (SF-539 CNS) of over 10 µM and a TGI (U251 CNS) of over 10 µM. The TGI (HCC-2998 colon) was over 10 µM, the TGI (MCF7 breast) was over 10 µM and the TGI (SNB-75 CNS) was over 10 µM. The TGI (HT29 colon) was over 10 µM.
For `N=C(N)SCCCN`, the TGI (OVCAR-3 ovarian) was 30.5 µM, the TGI (786-0 renal) was 66.1 µM and the TGI (CAKI-1 renal) was over 69.9 µM. The TGI (A549 NSCLC) was over 100 µM, the TGI (SF-539 CNS) was 30.9 µM and the TGI (U251 CNS) was 24.6 µM. For the same molecule, the TGI (HCC-2998 colon) was 20.3 µM, the TGI (MCF7 breast) was over 59.9 µM and the TGI (SNB-75 CNS) was over 100 µM. The TGI (HT29 colon) was 62.3 µM.
`COC1=CC(=O)c2c(O)c3c(c(O)c2C1=O)C[C@](C)(O)C[C@@H]3O` gave a TGI (OVCAR-3 ovarian) of 5.29 µM, a TGI (786-0 renal) of 46.7 µM and a TGI (CAKI-1 renal) of 45.5 µM. The TGI (A549 NSCLC) was 9.81 µM, the TGI (SF-539 CNS) was 9.89 µM and the TGI (U251 CNS) was 14.6 µM. It also gave a TGI (HCC-2998 colon) of 10.7 µM, a TGI (MCF7 breast) of 16.3 µM and a TGI (SNB-75 CNS) of 28 µM. The TGI (HT29 colon) was 8.05 µM.
`Oc1ccc(Cl)cc1C1=N/C(=N\C/N=C2\N=C(c3cc(Cl)ccc3O)CC(c3ccccc3)N2)NC(c2ccccc2)C1` (stereo not given) was tested, and the TGI (OVCAR-3 ovarian) was over 100 µM, the TGI (786-0 renal) was over 100 µM and the TGI (CAKI-1 renal) was over 100 µM. For the same molecule, the TGI (A549 NSCLC) was over 100 µM, the TGI (SF-539 CNS) was over 100 µM and the TGI (U251 CNS) was over 100 µM. For the same molecule, the TGI (HCC-2998 colon) was over 100 µM, the TGI (MCF7 breast) was over 100 µM and the TGI (SNB-75 CNS) was over 100 µM. For the same molecule, the TGI (HT29 colon) was over 100 µM.
In the case of `CC(NNC(=O)c1ccncc1)c1ccc(Cl)c(Cl)c1` (stereo not given), the TGI (OVCAR-3 ovarian) is reported as over 100 µM, the TGI (786-0 renal) is reported as over 100 µM and the TGI (CAKI-1 renal) is reported as over 100 µM. For the same molecule, the TGI (A549 NSCLC) was over 100 µM, the TGI (SF-539 CNS) was over 100 µM and the TGI (U251 CNS) was over 100 µM. It also gave a TGI (HCC-2998 colon) of over 100 µM, a TGI (MCF7 breast) of over 100 µM and a TGI (SNB-75 CNS) of over 100 µM. The TGI (HT29 colon) was over 100 µM.
Molecule `O=C(O)c1cc(Cl)cc2c1NC1(N2)C(=O)Nc2ccccc21` (stereo not given) has a TGI (OVCAR-3 ovarian) of over 100 µM, a TGI (786-0 renal) of over 100 µM and a TGI (CAKI-1 renal) of over 100 µM. The TGI (A549 NSCLC) was over 100 µM, the TGI (SF-539 CNS) was over 100 µM and the TGI (U251 CNS) was over 100 µM. For the same molecule, the TGI (HCC-2998 colon) was over 100 µM, the TGI (MCF7 breast) was over 100 µM and the TGI (SNB-75 CNS) was over 100 µM. It also gave a TGI (HT29 colon) of over 100 µM.
